PMC2850566 (Biochemical pharmacology, 2010)
pEC50: −log10 of the molar value. Read-outs that look alike come from different tables or passages of the source.

Experiments:
human β2-AR = human β2-AR (Homo sapiens, UniProt P07550); conditions: plotted from previously reported ΔH° and TΔS°; cited from earlier work
β2-AR = conditions: cardiomyocytes; cited from earlier work
rat cardiomyocyte [1] = conditions: read-out: EC50cardio; rat cardiomyocyte contractility; cited from earlier work
rat cardiomyocyte [2] = test: Rat cardiomyocyte contractility model; assay type: cell-based; conditions: read-out: EC50cardio, authors' unpublished data

human β2-AR, sequence (P07550 whole entry): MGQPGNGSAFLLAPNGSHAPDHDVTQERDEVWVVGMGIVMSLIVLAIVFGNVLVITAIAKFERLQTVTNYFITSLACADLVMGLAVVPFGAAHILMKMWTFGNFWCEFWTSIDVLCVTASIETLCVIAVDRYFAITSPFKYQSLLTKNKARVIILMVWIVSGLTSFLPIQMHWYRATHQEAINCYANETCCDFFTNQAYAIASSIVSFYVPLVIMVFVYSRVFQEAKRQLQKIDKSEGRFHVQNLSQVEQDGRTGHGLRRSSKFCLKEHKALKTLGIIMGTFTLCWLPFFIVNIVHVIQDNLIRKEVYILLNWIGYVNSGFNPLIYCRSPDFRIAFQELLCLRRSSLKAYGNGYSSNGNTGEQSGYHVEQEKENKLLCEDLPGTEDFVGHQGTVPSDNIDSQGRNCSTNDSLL

| SMILES | Quadrant in the TΔS° and ΔH° plot (human β2-AR) | β2-AR coupling preference for G-proteins (β2-AR) | pEC50 (rat cardiomyocyte [1]) | pEC50 (rat cardiomyocyte [2]) |
| --- | --- | --- | --- | --- |
| CC(Cc1ccc(O)cc1)NCC(O)c1cc(O)cc(O)c1 (racemic) [rac-fenoterol] | enthalpy-entropy driven process | – | – | – |
| CC(Cc1ccc(O)cc1)NCC(O)c1cc(O)cc(O)c1 [(R,R')-fenoterol] | – | preferentially activates Gs signaling | 7.14 | – |
| C[C@@H](Cc1ccc(O)cc1)NC[C@H](O)c1cc(O)cc(O)c1 [(R,S')-fenoterol] | – | – | 6.24 | – |
| C[C@H](Cc1ccc(O)cc1)NC[C@@H](O)c1cc(O)cc(O)c1 [(S,R')-fenoterol] | – | activates both Gs and Gi proteins | 5.63 | – |
| CC(Cc1ccc(O)cc1)NCC(O)c1cc(O)cc(O)c1 [(S,S')-fenoterol] | – | – | – | 4.26 |
